This passage reports inhibition results from US7563787B2, “Substituted pyrazole compounds” (Miikana Therapeutics, Inc., priority 2005, dated 2009).

The structures appear in SMILES notation.

In one assay the target is T1, Aurora B kinase (Homo sapiens, UniProt Q96GD4).
T1 construct: purchased BPS Biosciences, San Diego, Calif
As to the kind of experiment: Aurora B (Aurora 1) Inhibition Assay. The format is biochemical. Conditions: 100 μM compound; ATP 50 μM; 16 h. The method, then:
Assays for Aurora B kinase inhibition were carried out similarly to those for Aurora A kinase (see above) with the following modifications. Aurora B kinase (BPS Biosciences, San Diego, Calif.) was used as the enzyme, at a concentration was 2.5 μg/mL. The ATP concentration was 50 μM, and the kinase reaction was allowed to proceed for 16 h. Sodium orthovanadate (20 μM) was added to the buffer to inhibit contaminating phosphatases.

The subject of another assay is HCT-116 cell growth. As to the kind of experiment: Whole Cell Cytotoxicity Assay: Sulforhodamine B. In kind it is cell-based, Human. The note with it: Homo sapiens, HCT-116; 100 μM compound; 96 hours; SRB staining. A general note: The SRB assay estimates cell density from bound dye.
In a further assay the target is T2, STK6 (Aurora A) (Homo sapiens, UniProt O14965).
T2 construct: full-length enzymes or catalytically active fragments; purchased Invitrogen
As to the kind of experiment: Kinase Selectivity Assay. In kind it is biochemical. Conditions: read-out: Percent Inhibition at 1 μM. The protocol:
(§1) Compounds were assayed for inhibitory activity against a panel of different kinase enzymes at a concentration of 1 μM. Where appropriate, full-length enzymes or catalytically active fragments, with N-terminal or C-terminal His- or GST-tags, were used (Invitrogen, Carlsbad, Calif.). Test compounds were initially diluted to 100× test concentration in 100% DMSO. This 100× concentration was then diluted to a 4× working concentration in Kinase Buffer (50 mM HEPES pH 7.5, 0.01% Brij-35, 10 mM MgCl2, 1 mM EGTA) and 2.5 μL was then added to a low volume NBS, 384-well plate (Corning, Corning, N.Y.). Five μL of a 2× peptide/kinase mixture (Invitrogen, Carlsbad, Calif.), as appropriate (listed in Table 3), was then added and the reaction was then initiated by addition of 2.5 μL of a 4× working concentration of ATP in Kinase Buffer.

Another assay concerns the target T3, EPHB1 (Homo sapiens, UniProt P54762).
T3 construct: purchased Invitrogen, Carlsbad, Calif
As to the kind of experiment: Kinase Selectivity Assay. Conditions: read-out: Percent Inhibition at 1 μM. In kind it is biochemical. The method, then:
as §1

The target of a further assay is T4, PDGFRA (PDGFR alpha) (Homo sapiens, UniProt P16234).
T4 construct: full-length enzymes or catalytically active fragments; purchased Invitrogen
Description: Kinase Selectivity Assay. The format is biochemical. The note with it: read-out: Percent Inhibition at 1 μM. The method, then: as §1

The target in another assay is T5, FLT3 D835Y (Homo sapiens, UniProt P36888, D835Y).
T5 construct: full-length enzymes or catalytically active fragments; purchased Invitrogen
As to the kind of experiment: Kinase Selectivity Assay. Conditions: read-out: Percent Inhibition at 1 μM. In kind it is biochemical. The method, then: as §1

For a further assay, the target named is T6, FLT3 (Homo sapiens, UniProt P36888).
T6 construct: full-length enzymes or catalytically active fragments; purchased Invitrogen
Description: Kinase Selectivity Assay. The format is biochemical. Conditions: read-out: Percent Inhibition at 1 μM. The protocol:
as §1

In another assay the target is T7, KDR (VEGFR2) (Homo sapiens, UniProt P35968).
T7 construct: full-length enzymes or catalytically active fragments; purchased Invitrogen
As to the kind of experiment: Kinase Selectivity Assay. In kind it is biochemical. Conditions: read-out: Percent Inhibition at 1 μM. The method, then: as §1

The target in the next assay is T8, TBK1 (Homo sapiens, UniProt Q9UHD2).
T8 construct: purchased Invitrogen, Carlsbad, Calif
As to the kind of experiment: Kinase Selectivity Assay. Conditions: read-out: Percent Inhibition at 1 μM. The format is biochemical. The method, then: as §1

Another assay addresses T9, GSK3B (GSK3 beta) (Homo sapiens, UniProt P49841).
T9 construct: full-length enzymes or catalytically active fragments; purchased Invitrogen
Description: Kinase Selectivity Assay. The note with it: read-out: Percent Inhibition at 1 μM. In kind it is biochemical. The protocol: as §1

Another assay addresses T10, BMX (Homo sapiens, UniProt P51813).
T10 construct: purchased Invitrogen, Carlsbad, Calif
Description: Kinase Selectivity Assay. In kind it is biochemical. Conditions: read-out: Percent Inhibition at 1 μM. The method, then:
as §1

The target in another assay is T11, FLT1 (VEGFR1) (Homo sapiens, UniProt P17948).
T11 construct: full-length enzymes or catalytically active fragments; purchased Invitrogen
Description: Kinase Selectivity Assay. The format is biochemical. The note with it: read-out: Percent Inhibition at 1 μM. The protocol:
as §1

The target of the next assay is T12, MAP2K1 (MEK1) (Homo sapiens, UniProt Q02750).
T12 construct: full-length enzymes or catalytically active fragments; purchased Invitrogen
Description: Kinase Selectivity Assay. The format is biochemical. The note with it: read-out: Percent Inhibition at 1 μM. The protocol:
as §1

Another assay has as its target T13, FGFR2 (Homo sapiens, UniProt P21802).
T13 construct: full-length enzymes or catalytically active fragments; purchased Invitrogen
As to the kind of experiment: Kinase Selectivity Assay. The format is biochemical. The note with it: read-out: Percent Inhibition at 1 μM. The protocol: as §1

The target in another assay is T14, RET (Homo sapiens, UniProt P07949).
T14 construct: full-length enzymes or catalytically active fragments; purchased Invitrogen
T14 sequence (P07949 29-1114): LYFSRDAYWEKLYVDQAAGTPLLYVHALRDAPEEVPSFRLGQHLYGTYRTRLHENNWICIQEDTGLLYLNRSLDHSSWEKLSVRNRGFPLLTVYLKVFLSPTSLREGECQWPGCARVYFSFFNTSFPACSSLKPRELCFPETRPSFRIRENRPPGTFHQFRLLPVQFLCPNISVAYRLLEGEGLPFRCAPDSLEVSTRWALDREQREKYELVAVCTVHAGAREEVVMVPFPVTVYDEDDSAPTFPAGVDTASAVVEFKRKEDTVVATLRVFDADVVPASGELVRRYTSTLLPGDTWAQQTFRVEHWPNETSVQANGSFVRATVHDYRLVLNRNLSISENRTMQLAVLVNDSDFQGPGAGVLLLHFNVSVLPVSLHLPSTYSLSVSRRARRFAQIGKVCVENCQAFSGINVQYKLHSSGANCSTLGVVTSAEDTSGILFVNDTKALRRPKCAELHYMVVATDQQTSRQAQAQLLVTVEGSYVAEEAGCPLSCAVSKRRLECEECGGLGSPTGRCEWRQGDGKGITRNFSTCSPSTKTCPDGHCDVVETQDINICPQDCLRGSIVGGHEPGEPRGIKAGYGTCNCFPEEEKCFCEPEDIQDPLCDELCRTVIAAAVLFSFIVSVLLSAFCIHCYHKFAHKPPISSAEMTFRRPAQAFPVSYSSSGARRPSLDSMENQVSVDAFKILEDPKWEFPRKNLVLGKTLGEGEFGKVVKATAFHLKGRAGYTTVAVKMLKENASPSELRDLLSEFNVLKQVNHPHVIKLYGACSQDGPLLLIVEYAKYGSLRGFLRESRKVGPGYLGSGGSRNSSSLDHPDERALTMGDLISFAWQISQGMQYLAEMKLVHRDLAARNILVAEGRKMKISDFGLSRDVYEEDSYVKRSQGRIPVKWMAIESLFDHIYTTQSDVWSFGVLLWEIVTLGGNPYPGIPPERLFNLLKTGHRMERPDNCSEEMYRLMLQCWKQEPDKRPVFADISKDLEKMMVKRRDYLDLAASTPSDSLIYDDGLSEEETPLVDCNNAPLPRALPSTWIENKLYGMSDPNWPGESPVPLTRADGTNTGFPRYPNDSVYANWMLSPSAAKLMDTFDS
Description: Kinase Selectivity Assay. Conditions: read-out: Percent Inhibition at 1 μM. The format is biochemical. The method, then: as §1

For a further assay, the target named is T15, YES1 (Homo sapiens, UniProt P07947).
T15 construct: purchased Invitrogen, Carlsbad, Calif
As to the kind of experiment: Kinase Selectivity Assay. In kind it is biochemical. The note with it: read-out: Percent Inhibition at 1 μM. The protocol:
as §1

The target in another assay is T16, BTK (Homo sapiens, UniProt Q06187).
T16 construct: purchased Invitrogen, Carlsbad, Calif
T16 sequence (Q06187 whole entry): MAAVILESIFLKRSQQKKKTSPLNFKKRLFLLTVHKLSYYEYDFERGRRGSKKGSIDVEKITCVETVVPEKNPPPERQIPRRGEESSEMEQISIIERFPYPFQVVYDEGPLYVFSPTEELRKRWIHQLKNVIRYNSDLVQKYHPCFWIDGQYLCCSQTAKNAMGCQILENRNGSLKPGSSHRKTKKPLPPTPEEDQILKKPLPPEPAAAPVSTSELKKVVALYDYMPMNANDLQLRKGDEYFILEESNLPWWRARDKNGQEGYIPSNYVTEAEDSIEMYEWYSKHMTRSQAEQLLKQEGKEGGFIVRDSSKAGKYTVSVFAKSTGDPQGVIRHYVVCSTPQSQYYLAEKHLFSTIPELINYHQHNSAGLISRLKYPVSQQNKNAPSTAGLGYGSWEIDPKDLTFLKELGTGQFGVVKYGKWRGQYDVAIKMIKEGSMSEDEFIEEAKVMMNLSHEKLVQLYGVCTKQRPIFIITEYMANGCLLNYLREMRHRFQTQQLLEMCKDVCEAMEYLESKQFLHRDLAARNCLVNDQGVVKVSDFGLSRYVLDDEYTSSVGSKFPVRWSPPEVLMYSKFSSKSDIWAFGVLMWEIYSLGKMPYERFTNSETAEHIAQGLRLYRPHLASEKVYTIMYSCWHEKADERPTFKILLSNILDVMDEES
As to the kind of experiment: Kinase Selectivity Assay. In kind it is biochemical. The note with it: read-out: Percent Inhibition at 1 μM. The protocol:
as §1

In a further assay the target is T17, KIT T670I (Homo sapiens, UniProt P10721, T670I).
T17 construct: full-length enzymes or catalytically active fragments; purchased Invitrogen
T17 sequence (P10721 26-976 T670I): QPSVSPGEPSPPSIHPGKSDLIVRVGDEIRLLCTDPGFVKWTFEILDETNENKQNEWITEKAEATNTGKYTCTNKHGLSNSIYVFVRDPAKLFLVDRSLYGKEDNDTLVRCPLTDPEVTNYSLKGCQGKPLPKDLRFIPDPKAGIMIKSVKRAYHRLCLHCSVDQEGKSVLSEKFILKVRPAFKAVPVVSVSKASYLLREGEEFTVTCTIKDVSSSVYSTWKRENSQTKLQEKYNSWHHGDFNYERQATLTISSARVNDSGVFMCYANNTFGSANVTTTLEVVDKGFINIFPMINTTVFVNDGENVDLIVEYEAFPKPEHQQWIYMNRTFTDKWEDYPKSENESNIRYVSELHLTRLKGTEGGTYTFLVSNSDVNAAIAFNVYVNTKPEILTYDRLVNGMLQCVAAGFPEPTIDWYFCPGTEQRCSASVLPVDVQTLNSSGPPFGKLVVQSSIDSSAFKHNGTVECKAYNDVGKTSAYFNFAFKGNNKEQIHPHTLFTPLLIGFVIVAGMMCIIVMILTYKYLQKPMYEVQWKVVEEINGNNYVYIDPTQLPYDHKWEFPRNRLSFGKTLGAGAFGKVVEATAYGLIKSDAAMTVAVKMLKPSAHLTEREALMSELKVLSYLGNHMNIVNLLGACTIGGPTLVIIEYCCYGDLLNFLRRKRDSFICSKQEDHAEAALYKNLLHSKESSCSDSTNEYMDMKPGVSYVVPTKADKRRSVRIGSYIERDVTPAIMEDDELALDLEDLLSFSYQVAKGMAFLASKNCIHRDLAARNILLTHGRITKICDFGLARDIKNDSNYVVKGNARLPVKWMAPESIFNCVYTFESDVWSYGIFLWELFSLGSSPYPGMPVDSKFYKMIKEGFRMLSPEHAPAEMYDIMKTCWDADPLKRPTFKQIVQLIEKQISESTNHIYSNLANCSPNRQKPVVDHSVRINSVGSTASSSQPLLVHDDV
As to the kind of experiment: Kinase Selectivity Assay. In kind it is biochemical. Conditions: read-out: Percent Inhibition at 1 μM. The method, then: as §1

A further assay addresses SRC (Homo sapiens, UniProt P12931). Description: Kinase Selectivity Assay. The format is biochemical. More on the design: full-length enzymes or catalytically active fragments; purchased Invitrogen. Conditions: read-out: Percent Inhibition at 1 μM. The protocol:
as §1

T1 sequence (Q96GD4 whole entry): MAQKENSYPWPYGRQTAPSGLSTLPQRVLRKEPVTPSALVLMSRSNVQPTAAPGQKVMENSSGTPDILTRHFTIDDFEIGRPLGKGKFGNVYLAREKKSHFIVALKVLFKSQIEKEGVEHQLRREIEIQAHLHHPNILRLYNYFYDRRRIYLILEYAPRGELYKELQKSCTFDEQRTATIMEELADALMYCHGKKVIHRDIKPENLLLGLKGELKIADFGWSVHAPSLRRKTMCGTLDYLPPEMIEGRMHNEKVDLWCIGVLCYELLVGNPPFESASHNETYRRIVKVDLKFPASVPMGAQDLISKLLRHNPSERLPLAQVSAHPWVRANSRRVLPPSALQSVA
T9 sequence (P49841 whole entry, the tested form may be a part): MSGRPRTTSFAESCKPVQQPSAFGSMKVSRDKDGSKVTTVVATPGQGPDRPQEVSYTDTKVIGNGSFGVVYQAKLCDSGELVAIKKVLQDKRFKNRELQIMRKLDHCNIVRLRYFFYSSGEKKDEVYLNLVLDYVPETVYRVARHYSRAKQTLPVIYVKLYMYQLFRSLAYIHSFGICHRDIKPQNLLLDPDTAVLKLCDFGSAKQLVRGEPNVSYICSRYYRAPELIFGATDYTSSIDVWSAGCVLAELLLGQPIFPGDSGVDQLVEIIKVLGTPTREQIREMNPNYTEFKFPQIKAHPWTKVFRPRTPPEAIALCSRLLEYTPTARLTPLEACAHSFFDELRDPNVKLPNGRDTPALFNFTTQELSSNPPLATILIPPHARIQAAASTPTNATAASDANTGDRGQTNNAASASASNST
T10 sequence (P51813 whole entry): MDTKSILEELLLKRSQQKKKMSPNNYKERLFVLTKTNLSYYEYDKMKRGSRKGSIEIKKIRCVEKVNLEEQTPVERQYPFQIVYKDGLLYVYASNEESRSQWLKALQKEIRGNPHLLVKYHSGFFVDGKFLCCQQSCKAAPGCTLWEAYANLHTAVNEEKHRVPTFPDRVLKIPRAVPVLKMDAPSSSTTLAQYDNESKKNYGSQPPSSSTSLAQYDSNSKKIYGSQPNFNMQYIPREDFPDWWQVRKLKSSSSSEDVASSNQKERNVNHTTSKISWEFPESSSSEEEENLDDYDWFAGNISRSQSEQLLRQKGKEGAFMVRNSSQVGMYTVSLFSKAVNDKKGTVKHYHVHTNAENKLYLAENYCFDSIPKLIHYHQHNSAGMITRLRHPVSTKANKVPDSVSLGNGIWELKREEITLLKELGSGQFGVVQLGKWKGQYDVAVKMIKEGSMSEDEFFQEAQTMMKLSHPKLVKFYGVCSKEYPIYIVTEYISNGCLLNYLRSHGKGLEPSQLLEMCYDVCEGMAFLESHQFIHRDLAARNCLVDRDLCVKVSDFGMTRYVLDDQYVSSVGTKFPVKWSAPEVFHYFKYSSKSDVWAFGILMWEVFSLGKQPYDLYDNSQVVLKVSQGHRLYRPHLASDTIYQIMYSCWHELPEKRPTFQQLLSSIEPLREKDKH
T13 sequence (P21802 22-821): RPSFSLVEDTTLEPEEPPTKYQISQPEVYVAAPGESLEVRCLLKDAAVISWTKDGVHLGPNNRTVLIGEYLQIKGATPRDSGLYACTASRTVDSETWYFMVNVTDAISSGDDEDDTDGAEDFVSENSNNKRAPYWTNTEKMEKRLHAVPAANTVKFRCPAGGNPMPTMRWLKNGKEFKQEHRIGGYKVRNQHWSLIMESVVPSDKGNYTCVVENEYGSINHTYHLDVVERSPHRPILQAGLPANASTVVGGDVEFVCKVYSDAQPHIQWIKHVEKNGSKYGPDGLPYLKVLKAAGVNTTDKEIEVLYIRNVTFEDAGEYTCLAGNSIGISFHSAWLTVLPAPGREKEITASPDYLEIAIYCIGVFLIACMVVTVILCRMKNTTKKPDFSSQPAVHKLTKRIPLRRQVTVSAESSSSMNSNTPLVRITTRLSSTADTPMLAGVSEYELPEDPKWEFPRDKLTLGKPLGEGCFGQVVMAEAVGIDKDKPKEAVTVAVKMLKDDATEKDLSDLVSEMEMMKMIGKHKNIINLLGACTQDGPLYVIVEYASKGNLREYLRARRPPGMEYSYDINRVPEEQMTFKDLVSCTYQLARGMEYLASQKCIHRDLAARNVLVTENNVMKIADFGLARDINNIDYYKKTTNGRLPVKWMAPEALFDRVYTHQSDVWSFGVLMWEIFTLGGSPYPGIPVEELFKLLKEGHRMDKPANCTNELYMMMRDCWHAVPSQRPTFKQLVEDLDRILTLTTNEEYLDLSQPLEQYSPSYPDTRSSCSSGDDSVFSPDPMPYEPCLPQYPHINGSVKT

What is called inhibition is the change of the read-out against control, counted positive when it falls. As to `Cc1cc(Nc2nc(/C=C/c3ccccc3)nc(N3CCN(C)CC3)c2N)[nH]n1` [Example 10, 6-(4-methylpiperazin-1-yl)-N-(3-methyl-1H-pyrazol-5-yl)-2-[(E)-2-phenylvinyl]pyrimidin-4,5-diamine], the inhibition at 100 µM was 97% on Aurora B kinase and 99% in the assay with HCT-116 cell growth. The inhibition at 1 µM was found to be 83% on STK6 (Aurora A); 32% at EPHB1; 58% on PDGFRA (PDGFR alpha); 80% on FLT3 D835Y; 93% at FLT3; 88% at KDR (VEGFR2). For the same molecule, the inhibition at 1 µM on TBK1 was found to be 73%; at GSK3B (GSK3 beta), 26%; at BMX, 19%; at FLT1 (VEGFR1), 25%; on MAP2K1 (MEK1), 23%; at FGFR2, 53%. Besides, the inhibition at 1 µM stood at 95% on RET; 80% at YES1; 28% on BTK; 44% on KIT T670I; 85% on SRC.

As for `Cc1cc(Nc2cc(N3CCN(C)CC3)nc(/C=C/c3ccccc3)n2)n[nH]1` [Example 31, 6-(4-methylpiperazin-1-yl)-N-(3-methyl-1H-pyrazol-5-yl)-2-[(E)-2-phenylvinyl]pyrimidin-4-amine], the inhibition at 100 µM at Aurora B kinase was 100%; with HCT-116 cell growth, 99%. Further, the inhibition at 1 µM at STK6 (Aurora A) is 96%; at EPHB1, 61%; at PDGFRA (PDGFR alpha), 83%; on FLT3 D835Y it was 98%; on FLT3, 98%; at KDR (VEGFR2), 96%. In addition, the inhibition at 1 µM at TBK1 worked out at 80%; on GSK3B (GSK3 beta), 28%; at BMX, 61%; at FLT1 (VEGFR1), 53%; on MAP2K1 (MEK1) it was 3%; at FGFR2, 86%. The inhibition at 1 µM is 98% at RET; 88% on YES1; 63% at BTK; 79% on KIT T670I; 96% on SRC.
